Assay results taken from patent US20210386744A1, “SILDENAFIL FOR USE IN THE TREATMENT OF OSTEOARTHRITIS” (MAZELOTTEN 353 AB under namnandring till ARTROA AB, priority 2018, published 2021).
“Also recorded” adds a separate entry of the source.

Experiments:
[1] = system: Horse chondrocytes from OA horses; experiment: ATP-evoked intracellular Ca2+ signalling in horse chondrocytes (fluorescence-based assay, Flexstation 3); type: cell-based; conditions: for intracellular Ca2+ release (AUC and peak): ATP 10^-4 M, OA horse chondrocytes
Description: Horse chondrocytes from OA horses were stimulated, in a fluorescence-based assay for detecting changes in intracellular Ca^2+ over time, with ATP (10^−4 M). The cells were cultivated in 5.5 mM glucose the whole cultivation period. Ca^2+ responses were measured after the cells were incubated for 24 h with metformin (1 mM), and bupivacaine (10^−12 M). Controls are untreated chondrocytes. The area under the Ca^2+ peak (AUC)(FIG. 1 A) was calculated for each Ca^2+ transient as well as the amplitude (peak) (FIG. 1 B) was expressed as the maximum increase. The cells were obtained from 4 experiments with quadruple wells in each. The level of significance was analyzed using a one-way ANOVA followed by Dunnett'multiple comparisons test. **P<0.01, **P<0.001. Similar data was obtained for human chondrocytes.
Articular cartilage samples were obtained, within 24 h of euthanasia, from the middle carpal joints of six horses (1-8-year-old). […] The horses were euthanized because of reasons unrelated to this study, and the Ethical Committee on Animal Experiments, Stockholm, Sweden, approved the study protocol (Dnr: N378/12).
Following aseptic preparation, cartilage of the dorsal aspect of the radial facet of the third carpal bone was incised with a scalpel, and full-thickness cartilage samples were collected with forceps. The tissue was placed in a sterile saline (0.9% NaCl) solution with gentamicin sulfate (50 mg/l) and amphotericin B (250 μg/ml). Cartilage samples were transported chilled (approx. 5° C.) to the laboratory. Isolation and expansion of chondrocytes were performed as previously described (Ley C, Svala E, Nilton A, Lindahl A, Eloranta M, Ekman S, Skiöldebrand E.Connect Tissue Res. (2011); 52 (4): 290-300). Cells were expanded in passage 1 and cells were seeded at 20,000 cells/cm2 in chondrogenic media to maintain the phenotype, DMEM-high glucose (DMEM-HG) (Thermo Fisher Scientific; Waltham, Mass., USA) supplemented with 14 μg/ml ascorbic acid (Sigma-Aldrich, St. Louis, Mo., USA), 10^−7 M dexamethasone (Sigma-Aldrich), 1 mg/ml human serum albumin (Equitech Bio, Kerville, Tex., USA), 1× insulin-transferrin-selenium (Gibco, Life Technologies, Carlsbad, Calif., USA), 5 μg/ml linoleic acid (Sigma-Aldrich), 1× penicillin-streptomycin (PEST) (Sigma-Aldrich), and 10 ng/ml human transforming growth factor (TGF) β-1 (R&D Systems, Abingdon, UK) for 5 days until confluence, in 96-well culture plates for Ca^2+ or in 6-well culture plates for Western blot analysis.
For restoration the cells were incubated with metformin and bupivacaine at day 4 of cultivation for 24 h. At day 5 the Ca^2+ measurements were performed, medium collected for Western blot analysis and cells were harvested and immediately frozen at −80° C. before analysis. […]

human chondrocytes = experiment: Quantitative real-time PCR of growth factors GDF-5 and FGF-18 in chondrocytes; type: cell-based; conditions: for FGF18 expression / GDF5 expression: human chondrocytes, treatment of bupivacaine and sildenafil, FIGS. 1C-D
Description: Cells (human chondrocytes) aimed for RNA isolation were washed with sterile PBS twice before addition of 1M DL-Dithiothreitol solution (Sigma Aldrich) in lysis buffer (Qiagen). The cells were visually inspected to ensure lysis before transfer to RNAse free, endtoxin-free sample tubes, snap frozen in liquid nitrogen, and stored at −80° C. for RNA isolation. Total RNA was extracted and purified with a commercially available kit (RNeasy mini kit, Qiagen) in accordance with the manufacturer's protocol. In brief, cells in lysis buffer were thawed and vortexed for 1 minute before 70% ethanol was added (1:1). The samples were mixed before addition to a spin column, and centrifuged. The column was then washed before genomic DNA was removed with DNase (Qiagen). The washing step was repeated with a stringent wash buffer and thereafter a mild buffer for washing membrane bound RNA. Total RNA was eluted with 50 μl RNase free water. RNA concentration was measured ho with a micro-volume spectrophotometer (ND-1000 spectrophotometer, NanoDrop Technologies, Wilmington, Del.) and RNA quality was evaluated using the Agilent 2100 Bioanalyzer system (Agilent Technologies Inc, Palo Alto, Calif.). cDNA was prepared from total RNA using High Capacity cDNA Reverse Transcription Kit (Applied Biosystems, Foster City, Calif., USA). Commercially available TaqMan Gene Expression Assays all from Applied Biosystems were used (Fibroblast growth factor 18 (FGF-18) and Growth and differentiation factor-5 (GDF-5)). Samples were analyzed in duplicates. The relative comparative CT method was used to analyze the real-time polymerase chain reaction (PCR) data.

COMP neo-epitope = COMP neo-epitope concentration in synovial fluid and serum of horses with osteoarthritis; type: in vivo, horse; conditions: for COMP neo-epitope concentration in serum: after treatment and during rehabilitation
Text: Diagnosis of OA may be done with methods known in the art, for example clinical examination, radiography as is known in the art or the use of biomarkers, such as, for example, the COMP protein fragment described in WO2017216289, which is incorporated herein by reference. The presence of the COMP fragment in a bodily fluid, for example serum or synovial fluid, indicates OA, in particular cartilage degradation during OA. The COMP fragment may be detected by using an antibody that specifically binds to a peptide comprising the amino acid sequence N-terminal-SGPTH. It is referred to WO2017216289 for details.
Analysis of COMP epitope concentrations in synovial fluid and serum was carried out as in WO2017216289, and is shown in FIGS. 2B and C, respectively. The presence of the COMP epitope indicates ongoing inflammation and tissue damage in the joint.

horse with OA = experiment: Clinical lameness examination with flexion test in horses with osteoarthritis; type: in vivo
Text: Lameness examination with flexion test and treatments have been performed by a veterinarian, and the results are shown in FIG. 2A. Lameness examination with flexion test and treatments have been performed by a veterinarian, and the results are shown in FIG. 3A.

Compound: C=C1/C(=C\C=C2/CCC[C@]3(C)[C@@H]([C@H](C)CCCC(C)(C)O)CC[C@@H]23)C[C@@H](O)C[C@@H]1O [D3, 1α,25-dihydroxyvitamin D3]
- intracellular Ca2+ release ([1]; D3 (calcitriol 100 nM) by itself, 24 h, FIG. 1E): did not have an effect

Compound: CCCCN1CCCCC1C(=O)Nc1c(C)cccc1C (centres unmarked) [bupivacaine]
- FGF18 expression (human chondrocytes): upregulated
- GDF5 expression (human chondrocytes): upregulated
- growth factors of importance for generation of cartilage (human chondrocytes; low concentration of bupivacaine): upregulated
- intracellular Ca2+ release (AUC and peak) ([1]; bupivacaine 10^-12 M together with metformin 1 mM, 24 h): decreased; also recorded: reduced

Compound: CCCc1nn(C)c2c(=O)[nH]c(-c3cc(S(=O)(=O)N4CCN(C)CC4)ccc3OCC)nc12 [sildenafil]
- growth factors of importance for generation of cartilage (human chondrocytes; addition of sildenafil in low concentration to bupivacaine): increased the effect
- FGF18 expression (human chondrocytes): upregulated
- GDF5 expression (human chondrocytes): upregulated
- intracellular Ca2+ release (AUC and peak) ([1]; sildenafil (1 μM, low concentration) added to bupivacaine/metformin, 24 h): increased the effect
- intracellular calcium signalling, in particular ATP-evoked ([1]; low doses): capable of inhibiting
- COMP neo-epitope concentration in serum (COMP neo-epitope; horse number 2, FIG. 3C): decrease of COMP levels to normal physiological levels
- COMP neo-epitope concentration in synovial fluid (COMP neo-epitope; horse number 2, FIG. 3B): decrease of COMP levels to normal physiological levels
- COMP neo-epitope concentration in serum (COMP neo-epitope; horse number 3, FIG. 4C): decreased levels of COMP
- COMP neo-epitope concentration in synovial fluid (COMP neo-epitope; horse number 3, FIG. 4B): decreased levels of COMP
- clinical lameness grade (horse with OA; horse number 2, carpal joints, 10 ml intra-articular injections): clinical recovery
- clinical lameness grade (horse with OA; horse number 3, both carpal joints, intra-articular injection): clinical recovery

Compound: hyaluronic acid
- lameness (horse with OA; horse number 1, both fetlock joints, hyaluronic acid intra-articularly and corticosteroids orally): lameness was increased
